{"source": "patent US11559512B2", "about": "“Composition for prevention, alleviation, and/or treatment of heat illness” (priority 2017, dated 2023)", "system": "PPARα", "test": "PPARα expression in HUVECs, antibody staining, confocal microscopy", "assay_type": "cell-based, human", "experimental": "Then, six 35-mm dishes were provided, and 2 mL/dish of the solution with the adjusted HUVEC density was inoculated. Auraptene (10 mM) and tangeretin (10 mM) were each added at 2 μL (final concentration: 10 μM)/dish to two dishes. Also, DMSO was added at 2 μL/dish to the remaining 2 dishes to prepare a control.\nThe supernatant of the HUVECs cultured in each 35-mm dish was removed, and 2 mL/dish of 4% paraformaldehyde in a phosphate buffer solution was added. The cells were left standing at room temperature for 1 hour.\nThe solution was removed, and then, the cells were rinsed twice. 2 mL/dish of 0.5% Triton-X00 (Wako Pure Chemical Industries, Ltd.) in PBS was added, and the cells were left standing at room temperature for 5 minutes. The solution was removed, and then, the cells were rinsed twice. 1 mL/dish of an anti-ABCD3 antibody, an anti-PPARα antibody or an anti-PPARγ antibody, each of which was diluted 150-fold with a FACS buffer, was added, and the cells were left standing at room temperature for 2 hours for reaction.\nThe solution was removed, and then, the cells were rinsed twice. 1 mL/dish of DyLight 649-labeled anti-Rabbit IgG antibody diluted 500-fold with a FACS buffer was added, and the cells were left standing at room temperature for 1 hour in the dark for reaction. The solution was removed, and then, the cells were rinsed twice. Two drops of Diamond Antifade Mountant with DAPI were added to the cells, and a round glass cover was put on the cells, followed by fluorescence photographing under a confocal laser scanning microscope."}
{"smiles": "CC(C)=CCC/C(C)=C/COc1ccc2ccc(=O)oc2c1", "note": "[auraptene, 7-geranyloxycoumarin]", "values": [{"measurement": "expression of PPARα", "setting": "HUVECs, 40° C. and 1 day, 10 μM, vs DMSO", "value": "increase in the expression of PPARα"}, {"measurement": "PPARα", "setting": "Table 2 summary, HUVECs 40° C., 37° C. as comparative control", "value": "Increased"}]}
